Source: US9676820B2, “Method for inhibiting proliferation of high LIX1L-expressing tumor cell, and tumor cell proliferation-inhibiting peptide” (National University Corporation Hamamatsu University School …, priority 2013, dated 2017)

What was measured:
K562 strain = assay: MTT assay, K562 strain; assay type: cell-based; settings: 72 hours; for absorbance at 570 nm (MTT assay), influence on cell proliferation: peptide 0 μM to 100 μM
Protocol: (§1) Specifically, first, cells plated in a 96-well microplate such that the density thereof became 5×10^3 cells/well were cultured for one night in a culture solution having the same composition as those in the reference examples. Thereafter, the culture solution was exchanged with 100 μL of a culture solution of which the concentration of peptides is 0 μM to 100 μM for culturing for 72 hours. After the culturing, an MTT-containing PBS solution was added to the culture solution, and the mixture was incubated for 4 hours. Then, formazan which was generated by putting 100 μL of isopropanol (containing 34 (v/v) % of hydrochloric acid) into each of the wells was dissolved. The absorbance of each of the wells of the microplate at 570 nm was measured using a microplate reader. As controls, culturing was performed in the same manner except that no peptide was added to the strains, an MTT assay was performed thereon, and the absorbance at 570 nm was measured (untreated).
(§2) Specifically, the cells were cultured for 72 hours similarly to Example 2 except that a peptide to be added to a cell strain was set to peptide 1, 3, or 4, or a control peptide, an MTT assay was performed thereon, and the absorbance at 570 nm was measured.
(§3) In the method for measuring the viable cell counts, cells were cultured for 3 days similarly to Example 1 except that a 25 μM (10 μM for an HL-60 strain, a K562 strain, and a U937 strain) culture solution containing a control peptide or a peptide 1 was used, and the viable cell counts were measured. As a comparison, culturing was performed similarly to the above using a culture solution containing no peptide, and the viable cell counts were measured (untreated).
(§4) In addition, in the method for performing an MTT assay, cells were cultured for 72 hours similarly to Example 2 except that a peptide to be added to a strain was set to a control peptide or a peptide 1 at 25 μM (10 μM for an HL-60 strain, a K562 strain, and a U937 strain), an MTT assay was performed thereon, and the absorbance at 570 nm was measured. As a comparison, culturing was performed similarly to the above using a culture solution containing no peptide, and the MTT assay was performed thereon (untreated).
(§5) Specifically, the cells were cultured for 72 hours similarly to Example 2 except that a peptide to be added to a cell was set to a peptide 1, 2, 5, or 6, MTT assays were performed thereon, and the absorbance at 570 nm was measured. As a comparison, culturing was performed similarly to the above using a culture solution containing no peptide, and the MTT assay was performed thereon (untreated).
as §5, with “that peptides” for “that a peptide”, “to” for “to a”, “cell strains were” for “cell was”, “to peptides 7 to 14,” for “to a peptide 1, 2, 5, or 6,”
Specifically, the cells were cultured for 72 hours similarly to Example 2 except that a peptide to be added to a cell strain was set to a peptide 15 or 16, an MTT assay was performed thereon, and the absorbance at 570 nm was measured. As a comparison, culturing was performed similarly to the above using a culture solution containing no peptide, and the MTT assay was performed thereon (untreated).

293 FLG = assay: MTT assay, 293 FLG cells; assay type: cell-based; settings: 72 hours, peptide concentrations up to 250 μM
Protocol: as §1, with “Thereafter, the culture solution was exchanged with 100 μL of a culture solution of which the concentration of peptides is 0 μM to 100 μM for culturing for 72 hours.” left out
as §3, §4, §5
(§6) Specifically, the cells were cultured for 72 hours similarly to Example 2 except that peptides to be added to cell strains were set to peptides 7 to 14, MTT assays were performed thereon, and the absorbance at 570 nm was measured. […]
(§7) Specifically, the cells were cultured for 72 hours similarly to Example 2 except that a peptide to be added to a cell strain was set to a peptide 15 or 16, an MTT assay was performed thereon, and the absorbance at 570 nm was measured. […]

293 FLG/LIX1L = assay: MTT assay, 293 FLG/LIX1L cells; assay type: cell-based; settings: 72 hours, peptide concentrations up to 250 μM
Protocol: as §1, with “Thereafter, the culture solution was exchanged with 100 μL of a culture solution of which the concentration of peptides is 0 μM to 100 μM for culturing for 72 hours.” left out
as §3, §4, §5, §6, §7

MKN45 strain = assay: MTT assay, MKN45 strain; assay type: cell-based; settings: 72 hours, peptide concentrations up to 250 μM
Protocol: as §1, with “Thereafter, the culture solution was exchanged with 100 μL of a culture solution of which the concentration of peptides is 0 μM to 100 μM for culturing for 72 hours.” left out
as §3, §4, §5, §6, §7

NUGC-4 strain = assay: MTT assay, NUGC-4 strain; assay type: cell-based; settings: 72 hours, peptide concentrations up to 250 μM
Protocol: as §1, with “Thereafter, the culture solution was exchanged with 100 μL of a culture solution of which the concentration of peptides is 0 μM to 100 μM for culturing for 72 hours.” left out
as §3, §4, §5, §6, §7

MKN45 cell strains = assay: Cancer mouse model transplanted with MKN45 cell strain; assay type: in vivo; settings: nude mice with MKN45 transplant; 100 μL of 30 μM peptide solution 4 times; vs spare mice given nothing
Protocol: Rearing of 10 nude male mice (BALB/cAJcl-nu/nu, purchased from CLEA Japan, Inc.) at the age of 7 weeks was started, and MKN45 cell strains separately cultured were transplanted into the mice by being subcutaneously injected thereinto on day 31. The day on which the transplantation was performed was set as day 0, the mice were divided into two groups (peptide 1-administered group and control peptide-administered group) of 5 mice on day 14 of the transplantation, 4 mice were selected among the 5 mice from each group, and the peptide 1 or the control peptide was administered. The remaining one mouse was set as a spare. In the peptide 1-administered group, 100 μL of a 30 μM peptide 1 solution (solution prepared by adding a methylcellulose solution to the solution after the peptide 1 was dissolved in PBS (−)) was subcutaneously injected into a tumor site (site into which the MKN45 cell strain was injected) 4 times every 3 days. In the control peptide-administered group, 100 μL of a 30 μM control peptide solution (solution prepared by adding a methylcellulose solution to the solution after the control peptide was dissolved in PBS (−)) was subcutaneously injected into a tumor site 4 times on the same days as those in the peptide 1-administered group.
The results in which the points of time (days) at which a peptide solution was administered to each mouse and the volume (mm^3) of a tumor site were temporally measured are shown in FIG. 21. For the volume of the tumor site, the width and the length of the tumor site determined from the appearance of the mouse were measured and calculated using the following formula. [Volume(mm^3) of Tumor Site]=([Width(mm) of Tumor Site]^2×[Length(mm) of Tumor Site])/2
The “width of tumor site” referred herein means a maximum width of a portion in which the skin has risen due to the tumor and the “length of tumor site” means a maximum length of a portion in which the skin has risen due to the tumor.

RPMI8226 strain = assay: MTT assay, RPMI8226 strain; assay type: cell-based; settings: peptide 0 μM to 100 μM, 72 hours
Protocol: as §1, §2

U937 strain = assay: MTT assay, U937 strain; assay type: cell-based; settings: peptide 0 μM to 100 μM, 72 hours
Protocol: as §1, §2, §3, §4

Compound	absorbance at 570 nm (MTT assay), influence on cell proliferation (K562 strain)	absorbance at 570 nm (MTT assay), influence on cell proliferation (RPMI8226 strain)	absorbance at 570 nm (MTT assay), cell proliferation (U937 strain)	also measured
YGRKKRRQRRR-X-HTQGYGRVNV-NH2 (YGRKKRRQRRRXHTQGYGRVNV; ε-aminocaproic acid linker; C-terminal amide; peptide 6)				cell proliferation (MTT assay, absorbance at 570 nm) (K562 strain; peptide concentrations up to 250 μM): not inhibited; cell proliferation (MTT assay, absorbance at 570 nm) (293 FLG): not inhibited; cell proliferation (MTT assay, absorbance at 570 nm) (293 FLG/LIX1L): not inhibited; cell proliferation (MTT assay, absorbance at 570 nm) (MKN45 strain): not inhibited; cell proliferation (MTT assay, absorbance at 570 nm) (NUGC-4 strain): not inhibited
N=C(N)NCCC[C@H](NC(=O)CNC(=O)[C@@H](N)Cc1ccc(O)cc1)C(=O)N[C@@H](CCCCN)C(=O)N[C@@H](CCCCN)C(=O)N[C@@H](CCCNC(=N)N)C(=O)N[C@@H](CCCNC(=N)N)C(=O)N[C@@H](CCC(N)=O)C(=O)N[C@@H](CCCNC(=N)N)C(=O)N[C@@H](CCCNC(=N)N)C(=O)N[C@@H](CCCNC(=N)N)C(=O)NCCCCCC(N)=O [control peptide, reference compound]				body weight (MKN45 cell strains): no particularly significant change
peptide 3: peptide in which the Y136-containing partial sequence consists of 20 amino acids (YGRKKRRQRRRXEMVPSNSPPYVCYVTLPGGS; peptide 3)	inhibited	not inhibited	inhibited	
peptide 4: peptide in which the Y136-containing partial sequence consists of 30 amino acids (YGRKKRRQRRRXALVVYEMVPSNSPPYVCYVTLPGGSCFGSF; peptide 4)	inhibited	not inhibited	inhibited	
